The structures appear in SMILES notation.

Experiment [1] has as its target T1, Peroxisome proliferator-activated receptor gamma (Homo sapiens, UniProt P37231).
T1 sequence (P37231 whole entry): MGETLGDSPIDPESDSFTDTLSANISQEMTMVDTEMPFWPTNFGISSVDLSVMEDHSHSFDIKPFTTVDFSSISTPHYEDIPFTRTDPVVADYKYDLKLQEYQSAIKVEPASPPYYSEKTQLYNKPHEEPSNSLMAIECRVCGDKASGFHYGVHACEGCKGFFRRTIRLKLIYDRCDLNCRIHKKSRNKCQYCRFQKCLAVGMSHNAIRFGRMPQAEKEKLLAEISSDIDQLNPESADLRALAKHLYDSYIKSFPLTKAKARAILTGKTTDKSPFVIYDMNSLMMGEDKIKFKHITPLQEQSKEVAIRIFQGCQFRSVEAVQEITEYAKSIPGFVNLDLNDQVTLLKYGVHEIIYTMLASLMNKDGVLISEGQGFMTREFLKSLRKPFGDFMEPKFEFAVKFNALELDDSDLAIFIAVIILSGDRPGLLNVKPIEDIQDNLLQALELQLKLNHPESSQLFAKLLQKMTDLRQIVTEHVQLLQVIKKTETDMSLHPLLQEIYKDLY
It counts as cell-based, 293T.

In experiment [2] the target is T2, Peroxisome proliferator-activated receptor delta (Homo sapiens, UniProt Q03181).
T2 sequence (Q03181 whole entry): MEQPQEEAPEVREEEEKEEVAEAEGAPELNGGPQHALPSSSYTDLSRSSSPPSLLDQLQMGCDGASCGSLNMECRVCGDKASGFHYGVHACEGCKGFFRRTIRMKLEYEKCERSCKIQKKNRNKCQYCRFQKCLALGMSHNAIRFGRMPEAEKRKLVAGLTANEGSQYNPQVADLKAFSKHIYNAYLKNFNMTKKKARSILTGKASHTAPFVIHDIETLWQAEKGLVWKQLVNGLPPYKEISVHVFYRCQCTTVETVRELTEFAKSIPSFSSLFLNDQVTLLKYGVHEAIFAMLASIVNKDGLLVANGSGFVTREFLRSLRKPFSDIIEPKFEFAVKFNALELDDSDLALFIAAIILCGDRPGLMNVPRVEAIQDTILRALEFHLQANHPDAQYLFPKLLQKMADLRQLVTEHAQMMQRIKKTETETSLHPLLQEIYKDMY

Experiment [3] addresses T3, Peroxisome proliferator-activated receptor alpha (Homo sapiens, UniProt Q07869).
T3 sequence (Q07869 whole entry): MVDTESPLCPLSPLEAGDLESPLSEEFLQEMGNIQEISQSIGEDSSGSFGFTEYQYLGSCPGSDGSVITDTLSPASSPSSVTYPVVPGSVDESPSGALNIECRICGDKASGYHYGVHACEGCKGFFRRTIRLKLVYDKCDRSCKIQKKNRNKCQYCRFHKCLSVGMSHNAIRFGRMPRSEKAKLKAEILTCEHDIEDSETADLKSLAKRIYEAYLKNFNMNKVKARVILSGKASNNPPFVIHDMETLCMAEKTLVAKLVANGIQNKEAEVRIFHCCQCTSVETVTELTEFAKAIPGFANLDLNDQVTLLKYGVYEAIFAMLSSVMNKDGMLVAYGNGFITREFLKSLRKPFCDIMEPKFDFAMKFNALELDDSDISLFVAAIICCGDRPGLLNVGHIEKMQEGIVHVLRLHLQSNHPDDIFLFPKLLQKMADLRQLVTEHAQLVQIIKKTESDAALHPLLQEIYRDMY
Kind of experiment: Agonist activity at human PPARalpha ligand binding domain expressed in human 293T cells co-transfected with Gal4-DBD by luciferase transactivation assay. It is filed as cell-based.

Consider `Cc1cc(OCc2nc(-c3ccccc3)c(-c3ccccc3)s2)ccc1OCC(=O)O`, for which the EC50 in experiment [1] (read-out: EC50), in experiment [2] and in experiment [3] (read-out: EC50) was above 10 µM each time.
For the compound `COc1ccc(-c2nc(COc3ccc(OCC(=O)O)c(C)c3)sc2-c2ccc(Cl)nc2)cc1`, the EC50 in experiment [1] (read-out: EC50) is above 10 µM; in experiment [2], 0.88 µM; in experiment [3] (read-out: EC50), above 10 µM.
Take `COc1ccc(-c2nc(COc3ccc(OCC(=O)O)c(C)c3)sc2-c2cccc(C(F)(F)F)c2)cc1`: the EC50 is above 10 µM in experiment [1] (read-out: EC50), 0.07 µM in experiment [2] and above 10 µM in experiment [3] (read-out: EC50).
In the case of `Cc1cc(CN(CC(=O)Nc2ccc(Cl)cc2Cl)C2CCCCC2)ccc1OCC(=O)O`, the figures for the half-maximal effective concentration (EC50) result in experiment [1] (293t), in experiment [2] and in experiment [3] (293t) were “Not Active”, 0.003 µM and “Not Active”, respectively.
As for `Cc1cc(OCc2nc(-c3ccc4c(c3)OCCCO4)c(-c3ccc(OC(F)(F)F)cc3)s2)ccc1OCC(=O)O`, the figures for the EC50 in experiment [1] (read-out: EC50), in experiment [2] and in experiment [3] (read-out: EC50) were above 10 µM, 0.013 µM and above 10 µM, respectively.
Take `Cc1cc(OCc2nc(-c3ccc(C(F)(F)F)cc3)c(-c3ccc(C(F)(F)F)cc3)s2)ccc1OCC(=O)O`: the half-maximal effective concentration (EC50) is above 10 µM in experiment [1] (read-out: EC50), 0.35 µM in experiment [2] and above 10 µM in experiment [3] (read-out: EC50).
On to `COc1ccc(-c2nc(COc3ccc(CC(=O)O)cc3Cl)sc2-c2ccc(C(F)(F)F)cc2)cc1`, for which the EC50 in experiment [1] (read-out: EC50) was above 10 µM; in experiment [2], 0.48 µM; in experiment [3] (read-out: EC50) it was above 10 µM.
On to `COc1ccc(-c2nc(COc3ccc(OCC(=O)O)c(C)c3)sc2-c2ccccc2)cc1`, for which the results for the EC50 in experiment [1] (read-out: EC50), in experiment [2] and in experiment [3] (read-out: EC50) were above 10 µM, 0.19 µM and above 10 µM, respectively.
On to `COc1ccc(-c2nc(COc3ccc(OCC(=O)O)c(C)c3)oc2-c2cccc(C(F)(F)F)c2)cc1`, for which the EC50 in experiment [1] (read-out: EC50) was above 10 µM; in experiment [2], 0.65 µM; in experiment [3] (read-out: EC50), above 10 µM.
For the compound `COc1ccc(-c2nc(COc3ccc(OCC(=O)O)c(C)c3)sc2-c2ccc(SC(F)(F)F)cc2)cc1`, the EC50 is above 10 µM in experiment [1] (read-out: EC50), 0.15 µM in experiment [2] and above 10 µM in experiment [3] (read-out: EC50).
`Cc1cc(OCc2nc(-c3ccc(Cl)cc3)c(-c3ccccc3)s2)ccc1OCC(=O)O`: the results for the EC50 in experiment [1] (read-out: EC50), in experiment [2] and in experiment [3] (read-out: EC50) were above 10 µM, 5.9 µM and above 10 µM, respectively.
On to `COc1cccc(-c2nc(COc3ccc(OCC(=O)O)c(C)c3)sc2-c2ccc(OC(F)(F)F)cc2)c1`, for which the results for the EC50 in experiment [1] (read-out: EC50), in experiment [2] and in experiment [3] (read-out: EC50) were above 10 µM, 0.12 µM and above 10 µM, respectively.
Consider `COc1ccc(-c2nc(COc3ccc(OCC(=O)O)cc3)sc2-c2ccc(C(F)(F)F)cc2)cc1`, for which the EC50 in experiment [1] (read-out: EC50) was above 10 µM; in experiment [2], 0.93 µM; in experiment [3] (read-out: EC50) it was above 10 µM.
Turning to `COc1ccc(-c2nc(COc3ccc(OCC(=O)O)c(C)c3)oc2-c2ccc(OC)cc2)cc1`, the EC50 is above 10 µM in experiment [1] (read-out: EC50), 0.12 µM in experiment [2] and above 10 µM in experiment [3] (read-out: EC50).
As to `Cc1cc(OCc2nc(-c3ccc(OCC(C)C)cc3)c(-c3ccc(OC(F)(F)F)cc3)s2)ccc1OCC(=O)O`, the values for the EC50 in experiment [1] (read-out: EC50), in experiment [2] and in experiment [3] (read-out: EC50) were above 10 µM, 0.063 µM and above 10 µM, respectively.
As for `CCC(C)Oc1ccc(-c2nc(COc3ccc(OCC(=O)O)c(C)c3)sc2-c2ccc(OC(F)(F)F)cc2)cc1` (configuration not stated), the EC50 in experiment [1] (read-out: EC50) is above 10 µM; in experiment [2] it was 0.018 µM; in experiment [3] (read-out: EC50), above 10 µM.
`COc1ccc(-c2sc(COc3ccc(OCC(=O)O)c(C)c3)nc2C)cc1`: the EC50 in experiment [1] (read-out: EC50), in experiment [2] and in experiment [3] (read-out: EC50) was above 10 µM in each case.
As for `CCN(CC)c1ccc(-c2nc(COc3ccc(OCC(=O)O)c(C)c3)sc2-c2ccc(OC(F)(F)F)cc2)cc1`, the values for the EC50 in experiment [1] (read-out: EC50), in experiment [2] and in experiment [3] (read-out: EC50) were above 10 µM, 0.03 µM and above 10 µM, respectively.
Take `CCCOc1ccc(-c2nc(COc3ccc(OCC(=O)O)c(C)c3)sc2-c2ccc(OC(F)(F)F)cc2)cc1`: the EC50 in experiment [1] (read-out: EC50) was above 10 µM; in experiment [2] it was 0.035 µM; in experiment [3] (read-out: EC50) it was above 10 µM.

Values taken from ChEMBL document CHEMBL1153748 (J Med Chem, 2010).
